From patent US8415469B2, “Compounds and methods for kinase modulation, and indications therefor” (Plexxikon Inc., priority 2005, dated 2013)

Columns and labels:
Assay type in all cases: biochemical
B-Raf V600E = biological target: T1, B-Raf V600E (Homo sapiens, UniProt P15056, V600E); test: AlphaScreen kinase assay, B-Raf V600E; conditions: read-out: IC50, activity toward kinase B-Raf V600E
T1 construct: P4254. pFastBacBD-CDC37 BRAF D437-K722-X, V600E; His6 with pFastBac HT leader (TEV site) (N); made in house; host or cells: Sf9 (baculovirus; chaperone CDC37 co-expressed)
T1 sequence (P15056 with tags, fused parts or gaps V600E): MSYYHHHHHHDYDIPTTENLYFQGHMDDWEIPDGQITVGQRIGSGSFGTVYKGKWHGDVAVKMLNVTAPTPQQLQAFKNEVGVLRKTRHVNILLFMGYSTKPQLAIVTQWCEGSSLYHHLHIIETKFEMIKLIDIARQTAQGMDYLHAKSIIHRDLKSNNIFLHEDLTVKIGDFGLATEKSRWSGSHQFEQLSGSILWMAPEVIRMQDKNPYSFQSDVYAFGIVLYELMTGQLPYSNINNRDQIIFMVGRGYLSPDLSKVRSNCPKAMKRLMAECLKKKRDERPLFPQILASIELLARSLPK

PKC theta = biological target: T2, PKC theta (Homo sapiens, UniProt Q04759); test: Z'-Lyte FRET kinase assay (Invitrogen), PKC theta; conditions: read-out: IC50, activity toward kinase PKC theta
T2 construct: purchased Invitrogen (Carlsbad, Calif.), screening service
T2 sequence (Q04759 whole entry): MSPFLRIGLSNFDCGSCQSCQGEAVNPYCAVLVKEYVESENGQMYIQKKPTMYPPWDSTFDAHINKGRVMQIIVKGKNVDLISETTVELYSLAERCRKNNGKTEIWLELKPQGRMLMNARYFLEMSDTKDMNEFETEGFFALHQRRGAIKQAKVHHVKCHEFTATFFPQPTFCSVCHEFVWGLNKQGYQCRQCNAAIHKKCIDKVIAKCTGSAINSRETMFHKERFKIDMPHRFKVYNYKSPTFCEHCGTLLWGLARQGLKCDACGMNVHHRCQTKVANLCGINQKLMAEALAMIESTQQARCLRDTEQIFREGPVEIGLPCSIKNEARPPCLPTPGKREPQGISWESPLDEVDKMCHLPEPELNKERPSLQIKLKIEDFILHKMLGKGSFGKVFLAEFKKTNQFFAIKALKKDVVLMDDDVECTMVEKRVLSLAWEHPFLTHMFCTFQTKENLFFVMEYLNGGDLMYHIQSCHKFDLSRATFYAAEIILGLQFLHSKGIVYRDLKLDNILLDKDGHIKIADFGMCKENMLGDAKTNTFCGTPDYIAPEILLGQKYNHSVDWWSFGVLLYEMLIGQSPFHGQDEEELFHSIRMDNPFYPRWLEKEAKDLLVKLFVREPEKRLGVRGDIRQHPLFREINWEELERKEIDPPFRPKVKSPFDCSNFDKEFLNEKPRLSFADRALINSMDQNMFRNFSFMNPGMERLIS
How it was run: (§1)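 Read-out is the coumarin-to-fluorescein emission ratio, which rises when unphosphorylated peptide is cleaved by the development protease. Reactions contain serially diluted compound, 2 μM peptide and 10 μM ATP and run for 1 h at room temperature before 1 h development.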

Yes = biological target: T3, Yes (Homo sapiens, UniProt P07947); test: Z'-Lyte FRET kinase assay (Invitrogen), Yes; conditions: read-out: IC50, activity toward kinase Yes
T3 construct: purchased Invitrogen (Carlsbad, Calif.), screening service
T3 sequence (P07947 whole entry): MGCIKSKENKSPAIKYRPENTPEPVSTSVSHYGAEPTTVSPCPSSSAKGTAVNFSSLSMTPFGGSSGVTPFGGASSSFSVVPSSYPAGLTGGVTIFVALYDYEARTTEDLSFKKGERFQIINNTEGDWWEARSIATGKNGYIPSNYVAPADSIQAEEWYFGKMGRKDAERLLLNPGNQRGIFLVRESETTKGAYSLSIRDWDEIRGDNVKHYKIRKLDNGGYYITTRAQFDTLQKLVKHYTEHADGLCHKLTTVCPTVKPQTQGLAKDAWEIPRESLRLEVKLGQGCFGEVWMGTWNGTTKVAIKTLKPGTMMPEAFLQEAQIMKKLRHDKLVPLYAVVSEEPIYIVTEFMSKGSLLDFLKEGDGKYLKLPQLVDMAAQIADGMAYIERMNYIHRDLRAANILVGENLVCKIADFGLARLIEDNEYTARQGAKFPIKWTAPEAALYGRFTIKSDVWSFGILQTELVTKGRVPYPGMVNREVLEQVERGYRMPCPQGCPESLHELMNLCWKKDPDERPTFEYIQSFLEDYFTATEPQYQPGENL
How it was run: as §1

Kdr = biological target: T4, Kdr (Homo sapiens, UniProt P35968); test: Z'-Lyte FRET kinase assay (Invitrogen), Kdr; conditions: read-out: IC50, activity toward kinase Kdr
T4 construct: purchased Invitrogen (assay run by Invitrogen)
T4 sequence (P35968 20-1356): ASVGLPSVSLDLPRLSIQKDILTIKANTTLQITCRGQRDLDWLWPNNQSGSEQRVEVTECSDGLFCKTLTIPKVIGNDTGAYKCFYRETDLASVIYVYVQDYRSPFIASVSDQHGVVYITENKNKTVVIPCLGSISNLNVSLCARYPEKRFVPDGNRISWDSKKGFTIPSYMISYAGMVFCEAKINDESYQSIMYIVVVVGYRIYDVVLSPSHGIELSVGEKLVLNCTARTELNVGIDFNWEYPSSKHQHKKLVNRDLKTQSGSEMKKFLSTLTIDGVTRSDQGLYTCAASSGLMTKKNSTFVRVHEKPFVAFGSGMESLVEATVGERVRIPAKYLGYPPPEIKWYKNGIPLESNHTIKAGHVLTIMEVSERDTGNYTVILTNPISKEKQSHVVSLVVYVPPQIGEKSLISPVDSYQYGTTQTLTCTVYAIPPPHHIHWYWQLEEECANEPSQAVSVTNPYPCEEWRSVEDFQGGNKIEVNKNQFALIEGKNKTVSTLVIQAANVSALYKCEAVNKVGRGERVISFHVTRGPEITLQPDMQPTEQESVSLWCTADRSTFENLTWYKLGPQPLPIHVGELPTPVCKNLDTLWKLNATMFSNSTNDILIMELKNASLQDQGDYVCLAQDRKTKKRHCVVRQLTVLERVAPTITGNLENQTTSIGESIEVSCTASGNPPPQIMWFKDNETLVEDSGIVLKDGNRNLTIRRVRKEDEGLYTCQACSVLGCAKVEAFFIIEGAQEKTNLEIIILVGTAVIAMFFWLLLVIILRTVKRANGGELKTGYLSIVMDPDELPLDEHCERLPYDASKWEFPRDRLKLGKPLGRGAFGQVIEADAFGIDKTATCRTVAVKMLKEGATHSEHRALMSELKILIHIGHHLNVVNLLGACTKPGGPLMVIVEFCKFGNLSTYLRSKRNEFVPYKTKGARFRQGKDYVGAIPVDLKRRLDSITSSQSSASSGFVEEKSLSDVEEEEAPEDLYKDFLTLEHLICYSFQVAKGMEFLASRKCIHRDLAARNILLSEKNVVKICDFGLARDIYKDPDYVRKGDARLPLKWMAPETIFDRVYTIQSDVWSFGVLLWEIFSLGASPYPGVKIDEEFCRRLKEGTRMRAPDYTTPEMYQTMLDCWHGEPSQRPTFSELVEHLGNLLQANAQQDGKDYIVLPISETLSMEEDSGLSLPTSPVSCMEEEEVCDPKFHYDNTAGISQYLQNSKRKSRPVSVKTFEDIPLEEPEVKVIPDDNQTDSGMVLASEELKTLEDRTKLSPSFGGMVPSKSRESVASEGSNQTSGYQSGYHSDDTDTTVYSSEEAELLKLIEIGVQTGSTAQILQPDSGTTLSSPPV

Akt3 = Akt3 (Homo sapiens, UniProt Q9Y243); test: AlphaScreen kinase assay, Akt3; conditions: read-out: IC50, activity toward kinase Akt3
Chain of Akt3 (Q9Y243 whole entry): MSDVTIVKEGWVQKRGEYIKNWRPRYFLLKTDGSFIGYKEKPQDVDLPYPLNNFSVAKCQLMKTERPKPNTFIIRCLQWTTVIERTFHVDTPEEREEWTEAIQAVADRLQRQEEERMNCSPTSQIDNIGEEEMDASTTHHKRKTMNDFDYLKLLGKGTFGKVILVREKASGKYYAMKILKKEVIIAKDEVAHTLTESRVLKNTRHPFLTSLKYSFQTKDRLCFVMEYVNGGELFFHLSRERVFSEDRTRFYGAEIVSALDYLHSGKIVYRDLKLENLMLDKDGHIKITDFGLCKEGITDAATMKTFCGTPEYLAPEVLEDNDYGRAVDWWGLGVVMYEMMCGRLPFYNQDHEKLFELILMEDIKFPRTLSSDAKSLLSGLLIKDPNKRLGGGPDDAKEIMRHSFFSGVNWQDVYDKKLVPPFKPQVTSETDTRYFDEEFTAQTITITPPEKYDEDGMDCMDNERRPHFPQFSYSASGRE
How it was run: (§2)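 Biotinylated peptide substrate is phosphorylated by kinase; anti-phosphopeptide antibody on acceptor beads and streptavidin donor beads bring emission when substrate is phosphorylated. Inhibition lowers acceptor signal. Compounds from 20 mM DMSO stock tested as 8-point 1:3 serial dilutions.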

Kit = biological target: T5, Kit (Homo sapiens, UniProt P10721); test: AlphaScreen kinase assay, Kit; conditions: read-out: IC50, activity toward kinase Kit
T5 construct: P1332.N6 BI PTP KIT M552-K948-X COD; His6 (N); made in house; host or cells: E. coli (PTP1B co-expressed)
T5 sequence (P10721 with tags, fused parts or gaps): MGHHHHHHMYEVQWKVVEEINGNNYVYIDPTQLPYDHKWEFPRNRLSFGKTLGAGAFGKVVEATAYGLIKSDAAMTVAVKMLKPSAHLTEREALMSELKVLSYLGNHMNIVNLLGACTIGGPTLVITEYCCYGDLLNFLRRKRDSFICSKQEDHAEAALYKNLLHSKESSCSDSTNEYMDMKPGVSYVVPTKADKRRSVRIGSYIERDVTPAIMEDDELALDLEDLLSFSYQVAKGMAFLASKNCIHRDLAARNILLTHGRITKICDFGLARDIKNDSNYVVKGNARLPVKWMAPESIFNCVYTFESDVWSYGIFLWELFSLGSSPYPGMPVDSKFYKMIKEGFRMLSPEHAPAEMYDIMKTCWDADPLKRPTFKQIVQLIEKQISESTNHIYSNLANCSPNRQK

Abl = biological target: T6, Abl (Homo sapiens, UniProt P00519); test: AlphaScreen kinase assay, Abl; conditions: read-out: activity toward kinase Abl, IC50
T6 construct: P1121. pET-SPEC BI-PTP Abl G227-V515-X; His6 (N); made in house; host or cells: E. coli (PTP1B co-expressed)
T6 sequence (P00519 with tags, fused parts or gaps): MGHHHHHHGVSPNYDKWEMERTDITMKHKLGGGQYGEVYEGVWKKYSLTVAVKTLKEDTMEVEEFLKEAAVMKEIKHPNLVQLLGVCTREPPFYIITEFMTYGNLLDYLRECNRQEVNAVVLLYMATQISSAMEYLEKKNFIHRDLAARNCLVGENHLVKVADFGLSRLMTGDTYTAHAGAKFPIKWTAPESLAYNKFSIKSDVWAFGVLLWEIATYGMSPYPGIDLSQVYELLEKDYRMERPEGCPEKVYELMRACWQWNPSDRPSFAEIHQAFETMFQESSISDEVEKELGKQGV
How it was run: as §2

Jnk1 = biological target: T7, Jnk1 (Homo sapiens, UniProt P45983); test: AlphaScreen kinase assay, Jnk1; conditions: read-out: IC50, activity toward kinase Jnk1
T7 construct: purchased Upstate Biotechnology
T7 sequence (P45983 whole entry): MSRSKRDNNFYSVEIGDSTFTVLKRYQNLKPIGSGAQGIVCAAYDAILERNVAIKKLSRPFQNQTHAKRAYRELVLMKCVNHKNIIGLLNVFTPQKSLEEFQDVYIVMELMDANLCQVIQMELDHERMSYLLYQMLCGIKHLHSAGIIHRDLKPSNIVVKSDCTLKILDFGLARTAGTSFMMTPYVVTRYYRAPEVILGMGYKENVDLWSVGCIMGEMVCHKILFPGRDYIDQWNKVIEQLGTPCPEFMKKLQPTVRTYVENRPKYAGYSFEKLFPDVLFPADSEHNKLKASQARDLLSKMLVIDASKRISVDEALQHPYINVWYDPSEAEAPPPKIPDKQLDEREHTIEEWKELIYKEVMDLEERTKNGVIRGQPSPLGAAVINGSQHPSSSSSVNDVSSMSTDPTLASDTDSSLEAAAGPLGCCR

Measured: IC50

O=C(c1ccc(O)cc1)c1c[nH]c2ncc(-c3cccs3)cc12 [Compound P-0024, (4-Hydroxy-phenyl)-(5-thiophen-2-yl-1H-pyrrolo[2,3-b]pyridin-3-yl)-methanone]
not listed: Abl | Jnk1
≤ 10 µM: all other assays above

CC(=O)Nc1cccc(-c2cnc3[nH]cc(C(=O)c4cc(O)ccc4F)c3c2)c1 [Compound P-0001]
not listed: Yes
≤ 10 µM: all other assays above

Cc1c(O)cccc1C(=O)c1c[nH]c2ncc(Br)cc12 [Compound P-0055, (5-Bromo-1H-pyrrolo[2,3-b]pyridin-3-yl)-(3-hydroxy-2-methyl-phenyl)-methanone]
≤ 10 µM: B-Raf V600E | PKC theta | Yes | Kdr | Akt3

CS(=O)(=O)c1cccc(-c2cnc3[nH]cc(C(=O)c4cc(O)ccc4F)c3c2)c1 [Compound P-0008, (2-Fluoro-5-hydroxy-phenyl)-[5-(3-methanesulfonyl-phenyl)-1H-pyrrolo[2,3-b]pyridin-3-yl]-methanone]
≤ 10 µM: B-Raf V600E | Jnk1 | PKC theta | Akt3 | Kit

O=C(c1cccc(O)c1)c1c[nH]c2ncccc12 [Compound P-0011]
not listed: Akt3 | Jnk1
≤ 10 µM: all other assays above

CS(=O)(=O)c1cccc(-c2cnc3[nH]cc(C(=O)c4cccc(O)c4F)c3c2)c1 [Compound P-0026, (2-Fluoro-3-hydroxy-phenyl)-[5-(3-methanesulfonylphenyl)1H-pyrrolo[2,3-b]pyridin-3-yl]-methanone]
≤ 10 µM: B-Raf V600E | Jnk1 | PKC theta | Akt3 | Kit

CS(=O)(=O)Nc1cccc(-c2ccnc3[nH]cc(C(=O)c4cc(F)ccc4F)c23)c1 [Compound P-0060]
≤ 10 µM: B-Raf V600E | PKC theta | Yes | Kdr | Akt3

Nc1cccc(-c2cnc3[nH]cc(C(=O)c4cccc(O)c4)c3c2)c1 [Compound P-0003]
not listed: Yes
≤ 10 µM: all other assays above

O=C(c1ccc(O)cc1Cl)c1c[nH]c2ncccc12 [Compound P-0021]
not listed: Abl
≤ 10 µM: all other assays above

O=C(c1cccc(O)c1)c1c[nH]c2ncc(Br)cc12 [Compound P-0019]
not listed: Jnk1
≤ 10 µM: all other assays above

O=C(c1cccc(O)c1)c1c[nH]c2nccc(Cl)c12 [Compound P-0012]
not listed: Akt3 | Jnk1
≤ 10 µM: all other assays above

NC(=O)c1ccc(-c2ccnc3[nH]cc(C(=O)c4cc(F)ccc4F)c23)cc1 [Compound P-0013]
≤ 10 µM: B-Raf V600E | PKC theta | Yes | Kdr | Kit

Nc1cccc(-c2cnc3[nH]cc(C(=O)c4cc(O)ccc4F)c3c2)c1 [Compound P-0002]
not listed: Yes | Kdr
≤ 10 µM: all other assays above

Nc1cccc(-c2cnc3[nH]cc(C(=O)c4cccc(O)c4F)c3c2)c1 [Compound P-0004, [5-(3-amino-phenyl)-1H-pyrrolo[2,3-b]pyridin-3-yl]-(2-fluoro-3-hydroxy-phenyl)methanone]
≤ 10 µM: B-Raf V600E | Jnk1 | PKC theta | Akt3 | Kit

Cc1c(O)cccc1C(=O)c1c[nH]c2ncc(-c3cccnc3)cc12 [Compound P-0006, (3-Hydroxy-2-methyl-phenyl)-(5-pyridin-3-yl-1H-pyrrolo[2,3b]pyridin-3-yl)-methanone]
not listed: Yes | Abl
≤ 10 µM: all other assays above

O=C(c1cccc(O)c1)c1c[nH]c2ncc(Nc3ccccc3)cc12 [Compound P-0025]
not listed: Yes | Kit
≤ 10 µM: all other assays above
